Assay results published in US11998543B2, “Pharmaceutical composition comprising aldehyde inhibitor and anticancer agent for treatment of brain cancer” (Industry-Academic Cooperation Foundation, Yonsei University, priority 2018, dated 2024).

Assays:
TS13-64 cells = assay: WST cytotoxicity / cell viability assay (EZ-Cytox), 72 h drug treatment; assay type: cell-based, human; conditions: for Measured value (cell viability) / Value expressed relative to administration alone: TS13-64; for Measured value (cell viability): G and P 10 μM each; for Measured value (cell viability) / Cancer cell killing (cytotoxicity), comparison in words: 72 h; for Value expressed relative to administration alone: viability with anticancer drug alone set to 1; for Cancer cell killing (cytotoxicity), comparison in words: TS13-64 cells, compared with single agents or other combinations, PTX and 5-FU at high concentration (H) vs TMZ alone
Experimental: (§1) Cultured tumorsphere-forming glioblastoma cells (GBM TS) were seeded into 96-well plates at a density of 10^4 cells/well and treated for 72 hours with a drug-containing medium prepared in a Preparation Example (a control group was treated with general culture medium), and then cytotoxicity to the cancer cells was measured by WST assay using EZ-Cytox reagent (DoGenBio, Seoul, Korea) according to the manufacturer's protocol.
(§2) For the present disclosure, two types of tumorsphere (TS)-forming glioblastoma (GBM) cells were used. TS13-64 cells are primary tumor cells derived from a GBM patient, and established from a new GBM tissue sample under the approval of the Institutional Review Board of the Yonsei University College of Medicine (approval Nos: 4-2012-0212 and 4-2014-0649). As U87 cells, spherical cells prepared by culturing the U87MG cell line under TS culture conditions were used. For TS culture, cells were treated with DMEM/F-12 medium containing 2 wt % 1×B27, 0.02 wt % bFGF (20 ng/ml), 0.02 wt % EGF (20 ng/ml) and 50 U/ml penicillin/[…] streptomycin (100×, Gibco, Invitrogen Korea, Seoul, South Korea), and all in vitro experiments were performed under TS culture conditions.
(§3) For use in in vitro experiments, gossypol (G) and phenformin (P, Sigma-Aldrich) were dissolved in DMSO and H2O, respectively, at a concentration of 10 μM. The anticancer drug temozolomide (TMZ, Sigma-Aldrich) was dissolved in DMSO and used at a concentration of 250 μM. As controls for the anticancer drug TMZ for co-administration with gossypol and phenformin, other anticancer drugs, paclitaxel (PTX) and fluorouracil (5-FU), were used. […] That is, in the same manner as TMZ, paclitaxel was prepared and used at a low concentration of 2 nM and a high concentration of 5 nM, and fluorouracil was prepared and used at a low concentration of 50 μM and a high concentration of 100 μM (low concentration is indicated by L, and high concentration is indicated by H).
as §1, with “in the” for “in a”
(§4) Evaluation of cytotoxicity to cancer cells and the sphere-forming ability of cells was performed in the same manner as in Example 1.
(§5) In order to more easily compare these effects, the cell viability value obtained upon administration of each anticancer drug alone was set to 1, and the cell viability value obtained upon co-administration was expressed relative to the cell viability value obtained upon administration of each anticancer drug alone.

U87 cells = assay: as above; assay type: cell-based; conditions: for Measured value (cell viability) / Value expressed relative to administration alone: U87; for Measured value (cell viability): G and P 10 μM each; for Measured value (cell viability) / Cancer cell killing (cytotoxicity), comparison in words: 72 h; for Value expressed relative to administration alone: viability with anticancer drug alone set to 1; for Cancer cell killing (cytotoxicity), comparison in words: spherical U87 cells, compared with single agents or other combinations, PTX and 5-FU at high concentration (H) vs TMZ alone
Experimental: as §1, §2, §3
as §1, with “in the” for “in a”
as §4, §5

[1] = high concentration (H): PTX 5 nM, 5-FU 100 μM
[2] = low concentration (L): PTX 2 nM, 5-FU 50 μM

SMILES | Measured value (cell viability) (TS13-64 cells; TMZ 250 μM) | Value expressed relative to administration alone (TS13-64 cells; TMZ 250 μM) | Measured value (cell viability) (U87 cells; TMZ 250 μM) | Value expressed relative to administration alone (U87 cells; TMZ 250 μM) | Measured value (cell viability) (TS13-64 cells; [1]) | Value expressed relative to administration alone (TS13-64 cells; [1]) | Measured value (cell viability) (TS13-64 cells; [2]) | Value expressed relative to administration alone (TS13-64 cells; [2]) | Cancer cell killing (cytotoxicity), comparison in words (TS13-64 cells) | Measured value (cell viability) (U87 cells; [1]) | Value expressed relative to administration alone (U87 cells; [1]) | Measured value (cell viability) (U87 cells; [2]) | Value expressed relative to administration alone (U87 cells; [2]) | Cancer cell killing (cytotoxicity), comparison in words (U87 cells)
Cn1nnc2c(C(N)=O)ncn2c1=O [TMZ, temozolomide] | 0.781 | 1.000 | 0.879 | 1.000 | – | – | – | – | – | – | – | – | – | –
CC(=O)O[C@H]1C(=O)[C@@]2(C)[C@H]([C@H](OC(=O)c3ccccc3)[C@]3(O)C[C@H](OC(=O)[C@H](O)[C@@H](NC(=O)c4ccccc4)c4ccccc4)C(C)=C1C3(C)C)[C@]1(OC(C)=O)CO[C@@H]1C[C@@H]2O [PTX, paclitaxel] | – | – | – | – | 0.675 | 1.000 | 0.764 | 1.000 | higher | 0.720 | 1.000 | 0.947 | 1.000 | higher
O=c1[nH]cc(F)c(=O)[nH]1 [5FU, fluorouracil] | – | – | – | – | 0.756 | 1.000 | 0.826 | 1.000 | higher | 0.804 | 1.000 | 0.980 | 1.000 | higher
